Measurements reported in PMC10709440, “High-throughput ligand profile characterization in novel cell lines expressing seven heterologous insect olfactory receptors for the detection of volatile plant biomarkers” (Scientific Reports, 2023).
Like-named read-outs stand apart in the source and are kept apart here.

Tests used:
Drosophila OR13a = biological target: T1, Drosophila OR13a (Drosophila melanogaster, UniProt Q9VXL0); assay: Calcium ion fluorescence (GCaMP6) assay, OR13a stable HEK293 cell line; type: cell-based; details: for DF norm AVERAGE OR13a: normalized fluorescence change, values below 0.05 threshold given as 0
T1 construct: expressed in transfected cells
T1 sequence (Q9VXL0 1-418): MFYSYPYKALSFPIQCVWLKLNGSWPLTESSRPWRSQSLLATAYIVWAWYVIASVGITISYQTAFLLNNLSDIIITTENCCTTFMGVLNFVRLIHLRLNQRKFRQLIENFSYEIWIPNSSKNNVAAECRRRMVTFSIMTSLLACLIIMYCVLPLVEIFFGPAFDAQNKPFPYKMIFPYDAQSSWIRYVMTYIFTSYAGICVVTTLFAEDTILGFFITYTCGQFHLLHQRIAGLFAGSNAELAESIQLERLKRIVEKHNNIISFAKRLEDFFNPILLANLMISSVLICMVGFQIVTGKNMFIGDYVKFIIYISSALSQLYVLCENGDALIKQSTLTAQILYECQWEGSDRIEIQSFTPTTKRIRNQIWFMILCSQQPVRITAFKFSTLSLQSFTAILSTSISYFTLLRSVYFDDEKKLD
T1 sequence (Q9VNB5 1-486 partner): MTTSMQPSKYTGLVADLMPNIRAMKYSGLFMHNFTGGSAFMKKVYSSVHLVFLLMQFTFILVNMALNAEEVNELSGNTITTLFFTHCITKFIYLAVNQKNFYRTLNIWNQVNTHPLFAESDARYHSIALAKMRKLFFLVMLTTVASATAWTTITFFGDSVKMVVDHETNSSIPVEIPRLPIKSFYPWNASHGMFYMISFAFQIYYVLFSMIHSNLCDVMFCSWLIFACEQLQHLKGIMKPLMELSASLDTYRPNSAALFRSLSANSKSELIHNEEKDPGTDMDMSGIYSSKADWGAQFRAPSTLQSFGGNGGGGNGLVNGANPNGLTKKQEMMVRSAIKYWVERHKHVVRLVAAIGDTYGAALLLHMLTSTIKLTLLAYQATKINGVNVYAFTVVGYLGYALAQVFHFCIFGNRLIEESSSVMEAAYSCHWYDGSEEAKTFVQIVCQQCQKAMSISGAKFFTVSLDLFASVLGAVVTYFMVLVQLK
Procedure: (§1) These VUAA1 normalized ∆F values were used to compare the different receptors and ligands.
(§2) The concentration-dependent effect of the reference ligands on their cognate cell lines was examined in more detail. Twelve different ligand concentrations were measured on each cell line in an overall 0.01 μM to 100 μM concentration range with 5 repetitions with three technical replicates each time.
(§3) Twelve thousand to 18,000 cells were plated into each well of a black wall, transparent bottom 384-well microplate (Greiner) 48 h or 72 h before the measurements and were simultaneously treated with 1 μg/mL doxycycline. […] The plate has 24 columns, thus we could record responses in up to eight different cell lines in each plate. On the day of the experiment, the growth medium was replaced with 20 µL assay buffer/well (140 mM NaCl, 5 mM KCl, 2 mM CaCl2, 1 mM MgCl2, 5 mM HEPES-Na, 20 mM glucose, pH 7.3, 340 mOsm). […] Baseline fluorescence (F0) was recorded for 5 s, after which 7 µL VOC buffer (140 mM NaCl, 5 mM KCl, 2 mM CaCl2, 1 mM MgCl2, 5 mM HEPES-Na, 31 mM glucose, 0.1% DMSO, pH 7.3, 340 mOsm) was injected into each well in one row and the fluorescence response was recorded for an additional 30 s, at a rate of one read/sec. VOC solutions (VOC buffer with 4× concentration of the final measured VOC concentration, 9 µL/well was injected) were measured on the same wells in a second round with the same protocol. Each individual concentration of a specific VOC sample was recorded in three wells for the same cell line on the same microplate. The raw data were exported in xls file format, F0 and FMAX values, and the fluorescence intensity changes (∆F) were calculated in Excel (Microsoft) (Supplementary file Data summary.xlsx) using the following equation: ΔF=FMAX-F0/F0 (see also Fig. 1C). On each plate, we recorded the response of each cell line to 50 µM VUAA1. The average of these ∆F values of each cell line were used to calculate the VUAA1-normalized values for the rest of the plate, by dividing VOC response ∆F values by the average VUAA1 response ∆F value of the corresponding OR cell line. Each VOC-OR combination was measured three times as technical replicates. […] The average of these replicates were used as one ∆F and VUAA1-normalized ∆F in the following analysis.
(§4) In the next rows we tested the reference VOCs (or other VOCs known to activate the corresponding cell lines), in order to test if all cell lines are responsive. The remaining rows were used to test VOCs with unknown effect.
(§5) The recorded FMAX, F0, ∆F, VUAA1-normalized ∆F values, as well as the OR name, the name of the tested sample, and the final concentration for each well were copied into supplementary file Data summary.xlsx, that was used to summarize all the plates recorded. Here, the averages of the measurements were calculated for each receptor-VOC-concentration combination.

Drosophila OR10a = biological target: T2, Drosophila OR10a (Drosophila melanogaster, UniProt Q9VYZ1); assay: Calcium ion fluorescence (GCaMP6) assay, OR10a stable HEK293 cell line; type: cell-based
T2 construct: expressed in transfected cells
T2 sequence (Q9VYZ1 1-406): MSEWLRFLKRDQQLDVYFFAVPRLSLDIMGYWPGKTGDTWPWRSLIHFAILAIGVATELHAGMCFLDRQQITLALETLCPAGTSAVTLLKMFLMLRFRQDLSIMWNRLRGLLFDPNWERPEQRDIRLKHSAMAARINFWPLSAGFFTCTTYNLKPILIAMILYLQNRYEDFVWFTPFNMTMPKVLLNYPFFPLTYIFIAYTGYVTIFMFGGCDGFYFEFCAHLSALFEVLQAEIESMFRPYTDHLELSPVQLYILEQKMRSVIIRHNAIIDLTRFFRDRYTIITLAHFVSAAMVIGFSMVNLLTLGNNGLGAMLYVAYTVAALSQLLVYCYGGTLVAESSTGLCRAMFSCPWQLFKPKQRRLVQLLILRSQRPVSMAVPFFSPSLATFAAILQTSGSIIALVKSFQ
T2 sequence (Q9VNB5 1-486 partner): T1 sequence (Q9VNB5 1-486 partner)
Procedure: as §1, §2, §3, §4, §5

[1] = 1 μM VOC, 50 μM VUAA1 = 1, responses not exceeding 0.05 considered 0
[2] = 10 μM VOC, 50 μM VUAA1 = 1, responses not exceeding 0.05 considered 0
[3] = 100 μM VOC, 50 μM VUAA1 = 1, responses not exceeding 0.05 considered 0
[4] = HEK293, read-out: OR13a Average response (VUAA1-normalized), 1 μM VOC, 50 μM VUAA1 = 1, responses not exceeding 0.05 considered 0
[5] = HEK293, read-out: OR13a Average response (VUAA1-normalized), 10 μM VOC, 50 μM VUAA1 = 1, responses not exceeding 0.05 considered 0
[6] = HEK293, read-out: OR13a Average response (VUAA1-normalized), 100 μM VOC, 50 μM VUAA1 = 1, responses not exceeding 0.05 considered 0
[7] = HEK293, read-out: OR13a response (VUAA1-normalized response), VOC concentration 1 μM
[8] = HEK293, read-out: OR13a response (VUAA1-normalized response), VOC concentration 10 μM
[9] = HEK293, read-out: OR13a response (VUAA1-normalized response), VOC concentration 100 μM
[10] = HEK293, 1 μM VOC, 50 μM VUAA1 = 1, responses not exceeding 0.05 considered 0, read-out: OR10a Average response (VUAA1-normalized)
[11] = HEK293, 10 μM VOC, 50 μM VUAA1 = 1, responses not exceeding 0.05 considered 0, read-out: OR10a Average response (VUAA1-normalized)
[12] = HEK293, 100 μM VOC, 50 μM VUAA1 = 1, responses not exceeding 0.05 considered 0, read-out: OR10a Average response (VUAA1-normalized)
[13] = HEK293, read-out: OR10a response (VUAA1-normalized response), VOC concentration 1 μM
[14] = HEK293, read-out: OR10a response (VUAA1-normalized response), VOC concentration 10 μM
[15] = HEK293, read-out: OR10a response (VUAA1-normalized response), VOC concentration 100 μM

Compound	DF norm AVERAGE OR13a (Drosophila OR13a; concentration 1)	DF norm AVERAGE OR13a (Drosophila OR13a; concentration 10)	DF norm AVERAGE OR13a (Drosophila OR13a; concentration 100)	DF norm AVERAGE OR10a (Drosophila OR10a)	activation at 1 µM (Drosophila OR13a; [4])	activation at 10 µM (Drosophila OR13a; [5])	activation at 100 µM (Drosophila OR13a; [6])	activation at 1 µM (Drosophila OR13a; [7])	activation at 10 µM (Drosophila OR13a; [8])	activation at 100 µM (Drosophila OR13a; [9])	activation at 1 µM (Drosophila OR10a; [10])	activation at 10 µM (Drosophila OR10a; [11])	activation at 100 µM (Drosophila OR10a; [12])	activation at 1 µM (Drosophila OR10a; [13])	activation at 10 µM (Drosophila OR10a; [14])	activation at 100 µM (Drosophila OR10a; [15])	other results
C=C(C)C1CCC2(C)OC2C1 (single isomer, unassigned; (+)) [(+)-limonene oxide]	0	0	0	0	–	–	–	–	–	–	–	–	–	–	–	–	OR13a Average response (VUAA1-normalized) (Drosophila OR13a; [1]): 0.00; OR13a Average response (VUAA1-normalized) (Drosophila OR13a; [2]): 0.00; OR13a Average response (VUAA1-normalized) (Drosophila OR13a; [3]): 0.00; OR13a response (VUAA1-normalized response) (Drosophila OR13a; VOC concentration 1 μM): 0.00; OR13a response (VUAA1-normalized response) (Drosophila OR13a; VOC concentration 10 μM): 0.00; OR13a response (VUAA1-normalized response) (Drosophila OR13a; VOC concentration 100 μM): 0.00; OR10a Average response (VUAA1-normalized) (Drosophila OR10a; [1]): 0.00; OR10a Average response (VUAA1-normalized) (Drosophila OR10a; [2]): 0.02; OR10a Average response (VUAA1-normalized) (Drosophila OR10a; [3]): 0.00; OR10a response (VUAA1-normalized response) (Drosophila OR10a; VOC concentration 1 μM): 0.00; OR10a response (VUAA1-normalized response) (Drosophila OR10a; VOC concentration 10 μM): 0.00; OR10a response (VUAA1-normalized response) (Drosophila OR10a; VOC concentration 100 μM): 0.00
Cc1ccc(C)c(C)c1 [1,2,4-trimethylbenzene]	0	0	0	–	0%	0%	0%	0%	0%	0%	7%	0%	2.53%	7%	0%	0%	–
COc1cccc(OC)c1 [1,3-dimethoxy benzene]	0	0	0	0	0%	0%	3.71%	0%	0%	0%	0%	0%	0%	0%	0%	0%	–
CCCCCCCO [1-heptanol]	0	0.145	0.219	–	2%	15%	22%	0%	15%	22%	1.56%	6.57%	0%	0%	6.57%	0%	–
